Results from PubChem BioAssay AID1845219 (Molecular Pharmacology Branch, DTP, NCI, 2023).

System: SYO-1 tumor spheroids, viability % test/control
Assay: Anticancer human tumor SYO-1 cell line growth inhibition;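 further: spheroids exposed to agents for 7 days before viability read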;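 on viability, T/C: 100% = DMSO vehicle control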
Details: spheroids with HUVEC and MSC; for IC50: curve of first compound; for viability, T/C: stronger effect = lower value
Outline: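 Single agents and combinations were tested on spheroids built from tumor cells plus HUVEC and hMSC, at half-log dilutions starting at or near clinical Cmax, else 10 microM; final DMSO 0.25% (v/v).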

[1] = second compound 1 µM, first compound 0.0316 µM
[2] = second compound 1 µM, first compound 0.1 µM
[3] = second compound 1 µM, first compound 0.316 µM
[4] = second compound 1 µM, first compound 1 µM
[5] = second compound 1 µM, first compound 3.16 µM
[6] = second compound 1 µM, first compound 10 µM
[7] = second compound 3.16 µM, first compound 0.0316 µM
[8] = second compound 3.16 µM, first compound 0.1 µM
[9] = second compound 3.16 µM, first compound 0.316 µM
[10] = second compound 3.16 µM, first compound 1 µM
[11] = second compound 3.16 µM, first compound 3.16 µM
[12] = second compound 3.16 µM, first compound 10 µM
[13] = second compound 10 µM, first compound 0.0316 µM
[14] = second compound 10 µM, first compound 0.1 µM
[15] = second compound 10 µM, first compound 0.316 µM
[16] = second compound 10 µM, first compound 1 µM
[17] = second compound 10 µM, first compound 3.16 µM
[18] = second compound 10 µM, first compound 10 µM
[19] = second compound 31.6 µM, first compound 0.0316 µM
[20] = second compound 31.6 µM, first compound 0.1 µM
[21] = second compound 31.6 µM, first compound 0.316 µM
[22] = second compound 31.6 µM, first compound 1 µM
[23] = second compound 31.6 µM, first compound 3.16 µM
[24] = second compound 31.6 µM, first compound 10 µM
[25] = second compound 100 µM, first compound 0.0316 µM
[26] = second compound 100 µM, first compound 0.1 µM
[27] = second compound 100 µM, first compound 0.316 µM
[28] = second compound 100 µM, first compound 1 µM
[29] = second compound 100 µM, first compound 3.16 µM
[30] = second compound 100 µM, first compound 10 µM

Structure (SMILES)	IC50 (second compound 1 µM) [µM]	IC50 (second compound 3.16 µM) [µM]	IC50 (second compound 10 µM) [µM]	IC50 (second compound 31.6 µM) [µM]	IC50 (second compound 100 µM) [µM]	viability, T/C [1] [%]	viability, T/C [2] [%]	viability, T/C [3] [%]	viability, T/C [4] [%]	viability, T/C [5] [%]	viability, T/C [6] [%]	viability, T/C [7] [%]	viability, T/C [8] [%]	viability, T/C [9] [%]	viability, T/C [10] [%]	viability, T/C [11] [%]	viability, T/C [12] [%]	viability, T/C [13] [%]	viability, T/C [14] [%]	viability, T/C [15] [%]	other results
CC(C)n1c(=O)n(C)c2cnc3cc(F)c(-c4ccc(OCCCN5CCCCC5)nc4)cc3c21 + Cn1nnc2c(C(N)=O)ncn2c1=O	> 10	> 10	9.26	7.88	> 10	100	101	103	103	101	59.1	105	104	106	104	103	52	105	100	103	viability, T/C [16]: 108%; viability, T/C [17]: 102%; viability, T/C [18]: 46.3%; viability, T/C [19]: 106%; viability, T/C [20]: 113%; viability, T/C [21]: 106%; viability, T/C [22]: 115%; viability, T/C [23]: 104%; viability, T/C [24]: 35.8%; viability, T/C [25]: 108%; viability, T/C [26]: 112%; viability, T/C [27]: 106%; viability, T/C [28]: 96.2%; viability, T/C [29]: 103%; viability, T/C [30]: 73%
COc1ccc([C@@H](O)c2cc(-c3ncnc4cc(N5CCOCC5)ccc34)c(F)cc2Cl)nn1 + Cn1nnc2c(C(N)=O)ncn2c1=O	4.95	4.59	4.93	4.12	1.97	107	112	112	107	77.3	7.18	101	106	108	105	68.3	11.9	108	108	110	viability, T/C [16]: 107%; viability, T/C [17]: 74.6%; viability, T/C [18]: 10.7%; viability, T/C [19]: 116%; viability, T/C [20]: 110%; viability, T/C [21]: 111%; viability, T/C [22]: 109%; viability, T/C [23]: 59.4%; viability, T/C [24]: 18.4%; viability, T/C [25]: 113%; viability, T/C [26]: 116%; viability, T/C [27]: 107%; viability, T/C [28]: 80.2%; viability, T/C [29]: 29%; viability, T/C [30]: 2.71%
